Measurements from US20110098304A1, “Small molecule inhibitors of PARP activity” (priority 2009, published 2011).

target: T1, human PARD-1 (Poly (ADP-Ribose) Polymerase-1) (Homo sapiens, UniProt P09874); experiment: Poly (ADP-Ribose) Polymerase-1 in vitro enzyme assay (Universal Colorimetric Assay Kit, Trevigen); format: biochemical; conditions: letter codes; read-out: extent of inhibition of PARP activity (IC50, micromolar)
T1 construct: purchased Trevigen Inc., Gaithersburg, Md
Experimental: Poly (ADP-Ribose) Polymerase-1 (PARD-1) In Vitro Enzyme Assay: Compounds were screened for inhibitory activity against human PARD-1 in vitro using the Universal Colorimetric PARD Assay Kit (Trevigen Inc., Gaithersburg, Md.) as directed by the supplier. Compounds are assayed in duplicate in 0.5% DMSO final concentration, negative control is no enzyme, while positive control is DMSO vehicle alone. IC50 determinations are made using Microsoft Excel. For all cell assays, compounds are added to cells in 5% DMSO/PBS for a final concentration of 0.5% DMSO.

T1 sequence (P09874 whole entry): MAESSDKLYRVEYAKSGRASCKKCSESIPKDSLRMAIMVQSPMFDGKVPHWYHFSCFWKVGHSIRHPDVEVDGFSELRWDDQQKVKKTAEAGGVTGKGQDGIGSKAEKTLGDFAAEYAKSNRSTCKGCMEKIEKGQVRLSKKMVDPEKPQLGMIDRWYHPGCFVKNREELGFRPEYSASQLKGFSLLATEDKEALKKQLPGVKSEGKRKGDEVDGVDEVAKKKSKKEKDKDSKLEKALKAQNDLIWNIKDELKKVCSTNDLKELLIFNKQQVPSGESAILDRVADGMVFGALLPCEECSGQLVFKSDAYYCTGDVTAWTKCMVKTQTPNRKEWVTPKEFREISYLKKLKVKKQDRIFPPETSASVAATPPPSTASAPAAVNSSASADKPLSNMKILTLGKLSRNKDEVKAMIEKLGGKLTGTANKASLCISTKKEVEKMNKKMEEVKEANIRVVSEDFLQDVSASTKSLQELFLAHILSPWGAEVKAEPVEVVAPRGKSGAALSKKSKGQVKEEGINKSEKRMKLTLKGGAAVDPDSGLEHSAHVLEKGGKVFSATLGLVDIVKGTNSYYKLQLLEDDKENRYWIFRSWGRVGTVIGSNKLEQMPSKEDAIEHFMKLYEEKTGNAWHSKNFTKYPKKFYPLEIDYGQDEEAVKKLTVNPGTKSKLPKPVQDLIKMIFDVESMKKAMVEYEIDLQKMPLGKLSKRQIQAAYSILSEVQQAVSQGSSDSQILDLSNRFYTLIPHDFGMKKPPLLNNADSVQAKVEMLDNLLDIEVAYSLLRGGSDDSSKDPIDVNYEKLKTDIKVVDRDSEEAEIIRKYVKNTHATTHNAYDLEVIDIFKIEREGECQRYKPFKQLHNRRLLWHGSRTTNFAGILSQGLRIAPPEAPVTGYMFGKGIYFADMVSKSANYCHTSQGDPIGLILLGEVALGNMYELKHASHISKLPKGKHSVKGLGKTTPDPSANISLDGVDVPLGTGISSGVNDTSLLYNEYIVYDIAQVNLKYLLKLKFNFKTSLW

Structure (SMILES)	IC50 [µM]
CN1CCN(c2ccc(-c3n[nH]c(=O)c4ccccc34)cc2NC(=O)C(C)(C)C)CC1 [N-(2-(4-methylpiperazin-1-yl)-5-(4-oxo-3,4-dihydrophthalazin-1-yl)phenyl)pivalamide]	> 5
CN1CCN(c2ccc(-c3n[nH]c(=O)c4ccccc34)cc2NC(=O)NC(=O)c2ccccc2)CC1 [N-(2-(4-methylpiperazin-1-yl)-5-(4-oxo-3,4-dihydrophthalazin-1-yl)phenylcarbamoyl)benzamide]	0.1 to 1
CC(=O)Nc1cc(-c2n[nH]c(=O)c3ccccc23)ccc1N1CCN(C(C)(C)C)CC1 [N-(2-(4-tert-butylpiperazin-1-yl)-5-(4-oxo-3,4-dihydrophthalazin-1-yl)phenyl)acetamide]	1 to 5

Continued, values first:

IC50 [µM]	Structure (SMILES)
> 5	CC(C)(C)C(=O)Nc1cc(-c2n[nH]c(=O)c3ccccc23)ccc1N1CCN(C(C)(C)C)CC1 [N-(2-(4-tert-butylpiperazin-1-yl)-5-(4-oxo-3,4-dihydrophthalazin-1-yl)phenyl)pivalamide]
0.1 to 1	COC(=O)C(=O)Nc1cc(-c2n[nH]c(=O)c3ccccc23)ccc1N1CCN(C)CC1 [methyl 2-(2-(4-methylpiperazin-1-yl)-5-(4-oxo-3,4-dihydrophthalazin-1-yl)phenylamino)-2-oxoacetate]
0.1 to 1	CC(C)(C)OC(=O)CN1CCN(c2ccc(-c3n[nH]c(=O)c4ccccc34)cc2N)CC1 [tert-butyl 2-(4-(2-amino-4-(4-oxo-3,4-dihydrophthalazin-1-yl)phenyl)piperazin-1-yl)acetate]
